Test [1] deals with airway hyper-responsiveness induced by peroxynitrite. The test can be described thus: Airway hyper-responsiveness model induced by exposure of peroxynitrite in guinea pigs (lung resistance after histamine). In kind it is in vivo. The settings on record: 30 mg/kg orally one hour before peroxynitrite, histamine 32 μg/kg i.v. on 5-day, control group 759, non-stimulation group 382. The procedure: This test was performed so as to investigate the pharmacological effect of the 7-aminoquinolinone derivative of the present invention on an airway hyper-responsiveness model induced by exposure of peroxynitrite in guinea pigs. The test procedure will now be described.
Guinea pigs were fasted for 18 hours or more. The animals were administrated the test substance (30 mg/kg) orally one hour before exposure of peroxynitrite and the neck was dissected under ether anesthesia, and then the trachea was exposed. 0.1 mL of 1 mmol/L peroxynitrite was administered intratracheally into pulmonary side by pushing with air and, after the administration, the incision was sutured and disinfected.
The measurement of airway hyper-responsiveness was performed on 5-day, taking the day of model preparation 0-day. Guinea pigs were fasted for 18 hours or more. The measurement of lung resistance; (RLung) was performed according to the method of R. E. Giles et al. (R. E. Giles, M. P. Finkel and J. Mazurowski: Use of an Analog On-Line Computer for the Evaluation of Pulmonary Resistance and Dynamic Compliance in the Anesthetized Dog. Arch. Int. Pharmacodyn. 194, 213-222 (1971)). That is, the animals were anesthetized with Nembutal (Trade name: 40 mg/kg, i.v., sodium pentobarbital) and subjected to cannulation into esophagus, trachea and jugular veins (for administration of histamine). The esophagus and trachea cannulas were connected to an artificial respirator (ventilation volume: 6 mL/kg, ventilation frequency: 60 times/min, SN-480-7) and the Rlung was measured after intravenous administration (dose of 0.1 mL/kg) of physiological saline solution and histamine (32 μg/kg) using a total plethysmograph system via flow sensor, connected to Validyne DF45F (for flow rate) and DP45P (for pressure). RLung before administration was determined by averaging values of any 3 out of 20 breaths, RLung after administration of physiological saline solution was determined by averaging values of any 3 out of 5 breaths, and RLung after administration of histamine was determined by averaging values of the following 3 breaths; 1) showing the maximum lung resistance, 2) taken just before and 3) taken just after the one with the maximum lung resistance, out less than 20 breaths. (The extreme values in RLung that occurred when animal moved during the measurement were excluded from the calculations.)
The percentage of increase in lung resistance was calculated by the following equation. Increase in lung resistance (%)=([RLung after administration of histamine]−[RLung before administration])/[RLung before administration]×100

Test [2] is described as follows: Peroxynitrite scavenging activity (oxidation of dihydrorhodamine 123). It is filed as biochemical. The settings on record: oxidation of dihydrorhodamine 123 by peroxynitrite, phosphate buffer pH 7.4; read-out: 50% Inhibitory concentration on oxidation (IC50). The procedure: This test was performed by estimating the antioxidative effect of the test substance using peroxynitrite quantitative method as a test system with dihydrorhodamine 123 so as to confirm the ability of the 7-aminoquinolinone derivatives of the present invention to scavenge peroxynitrite. This is a method described in NITRIC OXIDE: Biology and Chemistry Vol. 1, 145-157, 1997.
The test substance was weighted in an amount of approximately 10 mg, dissolved in a 10% Tween 80 solution and adjusted to 5×10^−3 mol/L. Then, the solution was diluted with 0.1 mol/L phosphate buffer (pH=7.4) to 5×10^−4 mol/L. The diluent was further diluted stepwise with a phosphate buffer containing 1% Tween 80 to obtain substance solution. The preparation was conducted before use. The final concentration of the test substance was adjusted to 3×10^−6, 1×10^−6, 3×10^−7, 1×10^−7, and 3×10^−8 mol/L, respectively.
To 20 μL of peroxynitrite solution (manufactured by DOJINDO LABORATORIES), 1980 μL of 0.1 mol/L sodium hydroxide was added and the mixture was diluted 100 times. The absorbance of the maximum absorption wavelength near 300 nm was measured using a UV-visible spectrophotometer and the concentration was calculated according to the following equation. Concentration(mmol/L)=(absorbance/1670)×100×1000
Based on the concentration calculated in the above section, dilution with a 0.1 mol/L sodium hydroxide solution was conducted and adjusted to 10 mmol/L. 990 μL of a 0.1 mol/L sodium hydroxide solution was taken into a 1.5 mL-Eppen tube. To the Eppen tube, 10 μL of a solution adjusted to 10 mmol/L was added to prepare a 100 μmol/L solution.
Dihydrorhodamine 123 was dissolved into 1.155 mL of dimethylsulfoxide, and adjusted to the concentration of 25 mmol/L. This solution was dispensed into 20 μL aliquots and then the aliquots were stored in a biomedical freezer (about −20° C.) and used as a stock solution.
To 490 μL of 0.02% Tween 80 containing 0.1 mol/L phosphate buffer, 10 μL of 25 mmol/L of a thawed dihydrorhodamine 123 stock solution was added to make 500 μmol/L. The prepared solution was diluted with 0.1 mol/L phosphate buffer (pH=7.4) 1000 times to prepare 500 nmol/L of a dihydrorhodamine 123 solution.
(1) To a 3.5 mL brown vial containing a stirring bar, 1470 μL of a 500 nmol/L dihydrorhodamine 123 solution and then 15 μL of the test substance solution was added. For the blank and control groups, 15 μL of 0.1 mol/L phosphate buffer containing 1% Tween 80, as a solvent for the test substance solution, was added. After the addition, the mixture was stirred with a stirrer for 30 minutes.
15 μL of a 100 μmol/L peroxynitrite solution was added while stirring. For the blank group, 15 μL of a 0.1 mol/L sodium hydroxide solution was added. After stirring for 15 minutes, fluorescence intensity was measured.
Fluorescence intensity of the reaction solution was measured using a spectrophotofluorometer under the following measuring conditions: excitation wavelength, 500 nm; emission wavelength, 536 nm; measuring times, one; response, 1 sec; photomultiplier tube voltage, Low; band width at excitation side, 10 nm; bandwidth at emission side, 10 nm.
The oxidation rate of dihydrorhodamine 123 when adding the test substance was calculated, taking the oxidation rate of dihydrorhodamine 123 for control as 100, according to the following equation: Oxidation rate (%) of dihydrorhodamine 123=(measured value for each group−measured value for blank)/(measured for control−measured value for blank)×100 Calculation of Oxidation Inhibition Concentration (IC50)
50% oxidation concentration, that is 50% oxidation inhibition concentration (IC50) was calculated by giving a straight line from two points surrounding 50% oxidation rate.

Test [3] deals with airway hyper-responsiveness induced by ozone. The test can be described thus: Airway hyper-responsiveness model induced by inhalation of ozone in guinea pigs (lung resistance after methacholine). It is filed as in vivo. The settings on record: RLung after methacholine inhalation 5 hours after end of ozone exposure. On the procedure:
This test was performed so as to evaluate the pharmacological effect of the 7-aminoquinolinone derivatives of the present invention in an airway hyper-responsiveness model induced by inhalation of ozone in guinea pigs. The test procedure will now be described.
Guinea pigs were fasted for 18 hours or more. The animals were administered the test substance (30 mg/kg) and theophylline (100 mg/kg) one hour before ozone inhalation. For the non-stimulation group and the vehicle control group, vehicle (5 mL/kg) was administered similarly.
The animals were put into an acryl-made chamber (29×19×25 cm), subjected to induction of ozone generated by an ozonizer (EUV3-XU; EBARA JITSUGYO CO, LTD.) and exposed for 2 hours. The ozone concentration in the chamber was approximately 3 ppm. It was confirmed every 30 minutes that this concentration was maintained during exposure by an ozone monitor (EG-5000; EBARA JITSUGYO CO, LTD.) (measured value: 2.53 to 3.40 ppm). For the non-stimulation group, the animals were exposed to a mixed gas (oxygen: 95%, carbonic acid gas: 5%) similarly. The ozone concentration at that time was also confirmed similarly (acceptable concentration: 0.01 ppm or less, measured value: 0.00 to 0.01 ppm).
The measurement of airway hyper-responsiveness was performed 5 hours after the end of ozone exposure. The measurement of lung resistance (RLung) was performed according to the method of R. E. Giles et al. in the same manner as in Example 2. That is, the animals were anesthetized with Nembutal (Trade name: 50 mg/kg, i.p., sodium pentobarbital) and subjected to cannulation into esophagus and trachea. The esophagus and trachea cannulas were connected to a respirator (ventilation volume: 6 mL/kg, ventilation frequency: 60 times/min, SN-480-7) and the RLung after inhalation of methacholine (100 μg/mL, for 1.5 minutes) was measured by the respiratory function analyzer (PULMOS-II; M.I.P.S) through a flow sensor (connected to Validyle DF45F (for flow rate) and DP45P (for pressure)). The inhalation of methacholine was performed with an ultrasonic nebuliser (NE-U17; Omron Matsuzaka) connected to the respirator under artificial respiration.
Used RLung represents 10 breaths having a stable value in a range from 1 to 30 breaths after initiation of each measurement for both before inhalation and during methacholine inhalation. The average of the RLung was calculated. The extreme values in RLung that occurred when animal moved during the measurement were excluded from the calculations.
The percentage of increase of RLung was calculated by the following equation. Increase in lung resistance (%)=([RLung after inhalation of methacholine]−[RLung before administration])/[RLung before administration]×100

Where [4] appears, read: test substance 30 mg/kg one hour before ozone inhalation.

Consider `COc1c(OC(C)=O)c(=O)n(C)c2cc(N)ccc12` [Compound 32], for which the “Increase in lung resistance (%)” value worked out at 435% in test [1] and 32% in test [3] (setting [4]). Further, the IC50 in test [2] worked out at 960 nM.

Consider `CCCCCCOc1c(O)c2ccc(N)cc2n(C)c1=O` [Compound 53], for which the “Increase in lung resistance (%)” value was determined as 440% in test [1] and 29% in test [3] (setting [4]). For the same compound, the IC50 in test [2] worked out at 880 nM.

As to `CCCCCCCCOc1c(O)c2ccc(N)cc2n(C)c1=O` [Compound 55], the “Increase in lung resistance (%)” value worked out at 425% in test [1] and 26% in test [3] (setting [4]). Also, in test [2], the IC50 worked out at 960 nM.

Regarding `C=CCOc1c(O)c2ccc(N)cc2n(C)c1=O` [Compound 56], the figures for the “Increase in lung resistance (%)” value in test [1] and in test [3] (setting [4]) were 434% and 30%, respectively. Moreover, the IC50 in test [2] is 1050 nM.

On to `COc1c(O)c(=O)n(C)c2cc(N)ccc12` [Compound 58], for which the “Increase in lung resistance (%)” value is listed as 423% in test [1] and 27% in test [3] (setting [4]). Further, the IC50 in test [2] amounted to 810 nM.

Regarding `CCCCCCCCOc1c(O)c2ccc(N)cc2n(CC)c1=O` [Compound 87], the “Increase in lung resistance (%)” value stood at 432% in test [1] and 29% in test [3] (setting [4]). The IC50 in test [2] was 840 nM.

As to `CCCCCCOc1c(O)c2ccc(N)cc2n(CCCCCC)c1=O` [Compound 147], the “Increase in lung resistance (%)” value came out at 429% in test [1] and 29% in test [3] (setting [4]). Further, in test [2], the IC50 was 790 nM.

On to `CCCCCCCCn1c(=O)c(OC)c(O)c2ccc(N)cc21` [Compound 173], for which the “Increase in lung resistance (%)” value in test [1] worked out at 430%; in test [3] (setting [4]), 30%. For the same compound, in test [2], the IC50 was 890 nM.

Turning to `CCCCCCCCn1c(=O)c(O)c(OC)c2ccc(N)cc21` [Compound 181], the figures for the “Increase in lung resistance (%)” value in test [1] and in test [3] (setting [4]) were 425% and 25%, respectively. In addition, the IC50 in test [2] came to 940 nM.

Turning to `CCCCCCNc1ccc2c(O)c(OC)c(=O)[nH]c2c1` [Compound 204], the “Increase in lung resistance (%)” value is on record as 439% in test [1] and 37% in test [3] (setting [4]). Moreover, the IC50 in test [2] was determined as 890 nM.

Take `CCNc1ccc2c(O)c(OC)c(=O)n(C)c2c1` [Compound 236]: the results for the “Increase in lung resistance (%)” value in test [1] and in test [3] (setting [4]) were 428% and 28%, respectively. In addition, the IC50 in test [2] turned out to be 880 nM.

On to `CCCCNc1ccc2c(OC)c(O)c(=O)n(CC)c2c1` [Compound 276], for which the entries for the “Increase in lung resistance (%)” value in test [1] and in test [3] (setting [4]) were 430% and 30%, respectively. For the same compound, in test [2], the IC50 was found to be 820 nM.

Take `CCCCOc1c(O)c2ccc(N(C)C)cc2n(CCCC)c1=O` [Compound 303]: the “Increase in lung resistance (%)” value in test [1] came to 427%; in test [3] (setting [4]), 27%. For the same compound, the IC50 in test [2] amounted to 840 nM.

On to `CCCCn1c(=O)c(O)c(OC)c2ccc(N(C)C)cc21` [Compound 309], for which the “Increase in lung resistance (%)” value in test [1] amounted to 435%; in test [3] (setting [4]), 34%. In test [2], the IC50 amounted to 800 nM.

For the compound `CCCCCCn1c(=O)c(OC)c(O)c2ccc(NCC)cc21` [Compound 330], the “Increase in lung resistance (%)” value in test [1] worked out at 417%; in test [3] (setting [4]) it was 22%. Also, in test [2], the IC50 was 790 nM.

For the compound `CCCCCCCCn1c(=O)c(OC)c(O)c2ccc(NCC)cc21` [Compound 359], the results for the “Increase in lung resistance (%)” value in test [1] and in test [3] (setting [4]) were 431% and 31%, respectively. The IC50 in test [2] was found to be 850 nM.

For the compound `CCCCCCCCOc1c(O)c2ccc(NC(C)=O)cc2n(C)c1=O` [Compound 396], the entries for the “Increase in lung resistance (%)” value in test [1] and in test [3] (setting [4]) were 421% and 22%, respectively. In addition, the IC50 in test [2] is 940 nM.

`CCCCCCOc1c(O)c(=O)n(C)c2cc(NC(C)=O)ccc12` [Compound 401]: the entries for the “Increase in lung resistance (%)” value in test [1] and in test [3] (setting [4]) were 420% and 25%, respectively. Also, the IC50 in test [2] is 1010 nM.

On to `Cn1c(=O)c2[nH]cnc2n(C)c1=O` [theophylline, reference compound], for which the “Increase in lung resistance (%)” value in test [3] (theophylline 100 mg/kg one hour before ozone inhalation) was 26%.

The record behind these values is US8980914B2, “Therapeutic agent for chronic obstructive pulmonary disease and method for treatment for chronic obstructive pulmonary disease with the same” (Mariposa Health Limited, priority 2003, dated 2015).
